We go through 16 molecules from patent US20220143061A1, “3'3'-CYCLIC DINUCLEOTIDES AND PRODRUGS THEREOF” (INSTITUTE OF ORGANIC CHEMISTRY AND BIOCHEMISTRY ASCR, V.V.I., priority 2019, published 2022).

Each structure is given as a SMILES string. pEC50: −log10 of the molar value. Where two headings read alike, the source gives them in different places.

The target of test [1] is T1, human wild type STING (WT STING) (Homo sapiens, UniProt Q86WV6, H232R).
T1 construct: host or cells: 293T cells (ATCC CRL-3216), stably double transfected with pUNO1-hSTING-WT and pGL64.27-4×ISRE
T1 sequence (Q86WV6 whole entry H232R): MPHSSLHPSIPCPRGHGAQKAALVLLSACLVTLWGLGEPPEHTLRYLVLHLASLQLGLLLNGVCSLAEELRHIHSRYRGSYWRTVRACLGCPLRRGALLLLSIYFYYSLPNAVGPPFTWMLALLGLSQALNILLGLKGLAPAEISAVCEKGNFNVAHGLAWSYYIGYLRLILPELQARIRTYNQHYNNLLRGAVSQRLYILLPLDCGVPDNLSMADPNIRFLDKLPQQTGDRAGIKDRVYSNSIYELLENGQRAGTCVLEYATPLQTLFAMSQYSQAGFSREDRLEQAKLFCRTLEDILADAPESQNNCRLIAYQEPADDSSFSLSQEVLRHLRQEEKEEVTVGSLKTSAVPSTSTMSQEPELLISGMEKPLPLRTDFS
Put plainly: 293T WT STING standard reporter assay. In kind it is cell-based. The following applies: no digitonin, 7 hours, ISRE firefly luciferase. An excerpt: Two complementary oligonucleotides of the sequence […] […] […] […] […] The oligonucleotides were mixed in equal molar amounts, hybridized, and cleaved by restriction endonucleases HindIII (cat. #. R0104S, NEB, Ipswich, USA) and BglII (cat. #R0144S, NEB, Ipswich, USA). Ultimately, they were ligated into plasmid pGL4.27 (cat. #E6651, Promega, Madison, USA) linearized with the same enzymes. As result the sequence with four ISRE sites was placed upstream of the minimum promoter of firefly luciferase reporter gene.
After 5 minutes incubation at room temperature (RT), 250 μL of the mixture was added dropwise to the cells in one well. Cells were incubated 36 hours at 37° C. with 5% CO2, and then detached with 0.05% Trypsin and 0.22 g/L EDTA (both cat. #L0941, Biowest, Riverside, USA).
Transfected cells were seeded onto poly-D-lysine coated six well plates at density 50,000 cells per 1 cm^2 in DMEM medium with high glucose containing 10% heat inactivated FBS, 30 μg/mL blasticidin (cat. #ant-b1-05, InvivoGen, San Diego, USA), 0.06 mg/ml Penicillin G and 0.1 mg/ml Streptomycin Sulfate (both cat. #. L0018, Biowest, Riverside, USA). The medium was replenished every 3-4 days until visible colonies of cells resistant to blasticidin were formed.
Blasticidin resistant cells stably expressing WT STING were further transfected with pGL64.27-4×ISRE plasmid following the same procedure as described above. […] Homogeneous culture of stably double transfected cells was prepared by limiting dilution of cells in 96 well plates and wells with cells were selected that originated from a single cell.
The medium was removed the next day and three-fold serial dilutions of compounds in 100 μl medium were added to the cells. The plates were incubated for 7 hours at 37° C. with 5% CO2. Next 50 μl of the medium was removed from wells, and 30 μl of ONE-Glo™ Luciferase Assay System reagent (cat. #E6120, Promega, Madison, USA) was added to each well. Luminescence was read on Synergy H1 (Biotek, Winooski, USA).
On the technique in general: In a reporter assay the amount or activity of a reporter protein is the signal.

In test [2] the test system is peripheral blood mononuclear cell (PBMC). Put plainly: Peripheral blood mononuclear cell assay (cytokine levels). The format is cell-based. The following applies: 1 h with compound, wash, 15 hour incubation, average of one to four donors. As to the method:
Selected compounds were tested in an in vitro peripheral blood mononuclear cell (PBMC) assay. […] Serially diluted tested compounds were added to wells in 50 μl of cultivation medium and cell were incubated with compounds for 1 h at 37° C. with 5% CO2. Plates with cells were then spun 500 g for 5 minutes and medium was removed. Cells were washed twice with the cell culture medium by the use of centrifugation and gently resuspended in 100 μl medium without compounds. After 15 hour incubation at 37° C. with 5% CO2, the cell culture medium was collected and the levels of interferon-alpha (INF-α), interferon-gamma (INF-γ) and tumor necrosis factor-alpha (TNF-α) were determined with ProcartaPlex Assays (ThermoFisher, Waltham, USA) and MAGPIX System (Merck KGaA, Darmstadt, Germany). […] Values reported are an average of runs from one to four donors.

Setting [3] is: 293T wtSTING-FL cells, read-out: 293T WT STING EC50.
Where [4] appears, read: 293T WT STING EC50, 293T wtSTING-FL cells.

In the case of `CC(C)(C)C(=O)OCOP1(=O)CO[C@H]2[C@@H](F)[C@H](n3cnc4c(N)ncnc43)O[C@@H]2COP(=O)(OCOC(=O)C(C)(C)C)O[C@H]2[C@@H](F)[C@H](n3cnc4c(N)ncnc43)O[C@@H]2CO1` (mixture of isomers) [Compound 41b, {[(1R,6R,8R,9R,10R,16R,18R,19R)-8,18-bis(6-amino-9H-purin-9-yl)-13-{[(2,2-dimethylpropanoyl)oxy]methoxy}-9,19-difluoro-3,13-dioxo-2,4,7,11,14,17-hexaoxa-3λ^5,13λ^5-diphosphatricyclo[14.3.0.0^6,^10]nonadecan-3-yl]oxy}methyl 2,2-dimethylpropanoate], the pEC50 (in general, the negative decadic logarithm of the EC50, by convention in mol/L) in test [1] (setting [3]) is 7.52; in test [2] (read-out: PBMC EC50 IFN-α), 6.60; in test [2] (read-out: PBMC EC50 IFN-γ), 7.00; in test [2] (read-out: PBMC EC50 TNF-α), 7.40.
As for `CC(C)OC(=O)OCOP1(=O)CO[C@H]2[C@@H](F)[C@H](n3cnc4c(N)ncnc43)O[C@@H]2COP(=O)(OCOC(=O)OC(C)C)O[C@H]2[C@@H](F)[C@H](n3cnc4c(N)ncnc43)O[C@@H]2CO1` (mixture of isomers) [Compound 42b, {[(1R,6R,8R,9R,10R,16R,18R,19R)-8,18-bis(6-amino-9H-purin-9-yl)-9,19-difluoro-3,13-dioxo-13-({[(propan-2-yloxy)carbonyl]oxy}methoxy)-2,4,7,11,14,17-hexaoxa-3λ^5,13λ^5-diphosphatricyclo[14.3.0.0^6,^10]nonadecan-3-yl]oxy}methyl propan-2-yl carbonate], the pEC50 in test [1] (setting [3]) was 6.60; in test [2] (read-out: PBMC EC50 IFN-α), 5.64; in test [2] (read-out: PBMC EC50 IFN-γ), 5.89; in test [2] (read-out: PBMC EC50 TNF-α), 5.96.
The matching figures for `CCC(C)(C)C(=O)OCOP1(=O)CO[C@H]2[C@@H](F)[C@H](n3cnc4c(N)ncnc43)O[C@@H]2COP(=O)(OCOC(=O)C(C)(C)CC)O[C@H]2[C@@H](F)[C@H](n3cnc4c(N)ncnc43)O[C@@H]2CO1` (mixture of isomers) [Compound 44b, {[(1R,6R,8R,9R,10R,16R,18R,19R)-8,18-bis(6-amino-9H-purin-9-yl)-13-{[(2,2-dimethylbutanoyl)oxy]methoxy}-9,19-difluoro-3,13-dioxo-2,4,7,11,14,17-hexaoxa-3λ^5,13λ^5-diphosphatricyclo[14.3.0.0^6,^10]nonadecan-3-yl]oxy}methyl 2,2-dimethylbutanoate]: 8.00, 6.70, 6.70 and 6.70.
Regarding `CC1(C(=O)OCOP2(=O)CO[C@H]3[C@@H](F)[C@H](n4cnc5c(N)ncnc54)O[C@@H]3COP(=O)(OCOC(=O)C3(C)CCCCC3)O[C@H]3[C@@H](F)[C@H](n4cnc5c(N)ncnc54)O[C@@H]3CO2)CCCCC1` (mixture of isomers) [Compound 45b], the pEC50 in test [1] (setting [3]) was 7.52; in test [2] (read-out: PBMC EC50 IFN-α), 7.15; in test [2] (read-out: PBMC EC50 IFN-γ), 7.70; in test [2] (read-out: PBMC EC50 TNF-α), 7.70.
On to `CCCCCCCCCCCC(=O)OCSP1(=O)OC[C@H]2O[C@@H](n3cnc4c(N)ncnc43)[C@H](F)[C@@H]2OCP(=O)(O)OC[C@H]2O[C@@H](n3cnc4c(N)ncnc43)[C@H](F)[C@@H]2O1` (single isomer, unassigned) [Compound 31b], for which the pEC50 is 6.10 in test [2] (read-out: PBMC EC50 IFN-α), 6.52 in test [2] (read-out: PBMC EC50 IFN-γ) and 6.30 in test [2] (read-out: PBMC EC50 TNF-α).
In the case of `CCCCCCCCCC(=O)OCSP1(=O)OC[C@H]2O[C@@H](n3cnc4c(N)ncnc43)[C@H](F)[C@@H]2OCP(=O)(O)OC[C@H]2O[C@@H](n3cnc4c(N)ncnc43)[C@H](F)[C@@H]2O1` (single isomer, unassigned) [Compound 36a], the pEC50 in test [2] (read-out: PBMC EC50 IFN-α) is 5.60; in test [2] (read-out: PBMC EC50 IFN-γ), 5.80; in test [2] (read-out: PBMC EC50 TNF-α), 5.92.
As to `CCCCCCCCCC(=O)OCSP1(=O)OC[C@H]2O[C@@H](n3cnc4c(N)ncnc43)[C@H](F)[C@@H]2OCP(=O)(O)OC[C@H]2O[C@@H](n3cnc4c(N)ncnc43)[C@H](F)[C@@H]2O1` (single isomer, unassigned) [Compound 36b], the figures for the pEC50 in test [2] (read-out: PBMC EC50 IFN-α), in test [2] (read-out: PBMC EC50 IFN-γ) and in test [2] (read-out: PBMC EC50 TNF-α) were 6.00, 6.30 and 6.10, respectively.
Regarding `CC(C)(C)C(=O)OCSP1(=O)CO[C@H]2[C@@H](F)[C@H](n3cnc4c(N)ncnc43)O[C@@H]2COP(=O)(SCOC(=O)C(C)(C)C)O[C@H]2[C@@H](F)[C@H](n3cnc4c(N)ncnc43)O[C@@H]2CO1` (single isomer, unassigned) [Compound 39a], the pEC50 in test [1] (setting [4]) was 5.96.
For `CC(C)(C)C(=O)OCSP1(=O)CO[C@H]2[C@@H](F)[C@H](n3cnc4c(N)ncnc43)O[C@@H]2COP(=O)(SCOC(=O)C(C)(C)C)O[C@H]2[C@@H](F)[C@H](n3cnc4c(N)ncnc43)O[C@@H]2CO1` (single isomer, unassigned) [Compound 39b], in test [1] (setting [4]), the pEC50 was 7.70.
As for `CC(C)(C)C(=O)OCSP1(=O)CO[C@H]2[C@@H](F)[C@H](n3cnc4c(N)ncnc43)O[C@@H]2COP(=O)(SCOC(=O)C(C)(C)C)O[C@H]2[C@@H](F)[C@H](n3cnc4c(N)ncnc43)O[C@@H]2CO1` (single isomer, unassigned) [Compound 39c], in test [1] (setting [4]), the pEC50 is 7.52.
Regarding `CC(C)OC(=O)OCSP1(=O)CO[C@H]2[C@@H](F)[C@H](n3cnc4c(N)ncnc43)O[C@@H]2COP(=O)(SCOC(=O)OC(C)C)O[C@H]2[C@@H](F)[C@H](n3cnc4c(N)ncnc43)O[C@@H]2CO1` (single isomer, unassigned) [Compound 40b], in test [1] (setting [4]), the pEC50 was 5.92.
For the molecule `CC(C)OC(=O)OCSP1(=O)CO[C@H]2[C@@H](F)[C@H](n3cnc4c(N)ncnc43)O[C@@H]2COP(=O)(SCOC(=O)OC(C)C)O[C@H]2[C@@H](F)[C@H](n3cnc4c(N)ncnc43)O[C@@H]2CO1` (single isomer, unassigned) [Compound 40c], in test [1] (setting [4]), the pEC50 is 5.41.
As to `CC(C)(C)C(=O)OCOP1(=O)CO[C@H]2[C@@H](F)[C@H](n3cnc4c(N)ncnc43)O[C@@H]2COP(=O)(OCOC(=O)C(C)(C)C)O[C@H]2[C@@H](F)[C@H](n3cnc4c(N)ncnc43)O[C@@H]2CO1` (single isomer, unassigned) [Compound 41a], the pEC50 in test [1] (setting [3]) was 7.40.
Take `CC(C)OC(=O)OCOP1(=O)CO[C@H]2[C@@H](F)[C@H](n3cnc4c(N)ncnc43)O[C@@H]2COP(=O)(OCOC(=O)OC(C)C)O[C@H]2[C@@H](F)[C@H](n3cnc4c(N)ncnc43)O[C@@H]2CO1` (single isomer, unassigned) [Compound 42a]: the pEC50 in test [1] (setting [3]) is 5.09.
Consider `Nc1nc2c(ncn2[C@@H]2O[C@@H]3COP(=O)(O)O[C@H]4[C@@H](O)[C@H](n5cnc6c(N)ncnc65)O[C@@H]4COP(=O)(O)O[C@@H]2[C@@H]3O)c(=O)[nH]1` [2′3′-cGAMP, reference compound], for which the pEC50 in test [2] (read-out: PBMC EC50 IFN-α) was 3.52; in test [2] (read-out: PBMC EC50 IFN-γ), 3.79; in test [2] (read-out: PBMC EC50 TNF-α), 3.68.
For `CCCCCCCCCCCCOC(=O)OCSP1(=O)OC[C@H]2O[C@@H](n3cnc4c(N)ncnc43)[C@H](F)[C@@H]2OCP(=O)(O)OC[C@H]2O[C@@H](n3cnc4c(N)ncnc43)[C@H](F)[C@@H]2O1` (stereo partly drawn) [Compound 34b, (((2R,3R,3aR,7aR,9R,10R,10aR,15aR)-2,9-bis(6-amino-9H-purin-9-yl)-3,10-difluoro-13-hydroxy-5,13-dioxidodecahydro-2H-difuro[3,2-d:3′,2′-k][1,3,7,10]tetraoxa[2,8]diphosphacyclotridecin-5-yl)thio)methyl dodecyl carbonate], the values for the pEC50 in test [2] (read-out: PBMC EC50 IFN-α), in test [2] (read-out: PBMC EC50 IFN-γ) and in test [2] (read-out: PBMC EC50 TNF-α) were 5.89, 6.30 and 6.15, respectively.
